# Biological target: T1, Helicobacter pylori-derived urease (Helicobacter pylori, UniProt P69996)
# T1 construct: an urease solution prepared from Helicobacter pylori; endogenous in cells
# Assay: Screening of urease inhibitors (ammonia yield from urea)
# Assay type: biochemical
# Details: not given
# Method: Screening of Urease Inhibitors
# One hundred (100) μl of 100 mM Bis-Tris buffer (pH 6.5) and 60 μl of an urease solution prepared from Helicobacter pylori were added to 20 μl of a test drug dissolved in 0.1% dimethylformamide solution. The mixture was incubated at room temperature for 30 minutes, and then 20 μl of 100 mM urea was added. The mixture was kept at room temperature for 10 minutes, and then the yielded ammonia in the incubation mixture was measured using a commercial test kit (Ammonia Test Wako®; Wako Pure Chemical). The percent inhibition against the yield of ammonia in the solvent addition group was calculated to obtain the IC50 value.
# T1 sequence (P69996 whole entry, looked up): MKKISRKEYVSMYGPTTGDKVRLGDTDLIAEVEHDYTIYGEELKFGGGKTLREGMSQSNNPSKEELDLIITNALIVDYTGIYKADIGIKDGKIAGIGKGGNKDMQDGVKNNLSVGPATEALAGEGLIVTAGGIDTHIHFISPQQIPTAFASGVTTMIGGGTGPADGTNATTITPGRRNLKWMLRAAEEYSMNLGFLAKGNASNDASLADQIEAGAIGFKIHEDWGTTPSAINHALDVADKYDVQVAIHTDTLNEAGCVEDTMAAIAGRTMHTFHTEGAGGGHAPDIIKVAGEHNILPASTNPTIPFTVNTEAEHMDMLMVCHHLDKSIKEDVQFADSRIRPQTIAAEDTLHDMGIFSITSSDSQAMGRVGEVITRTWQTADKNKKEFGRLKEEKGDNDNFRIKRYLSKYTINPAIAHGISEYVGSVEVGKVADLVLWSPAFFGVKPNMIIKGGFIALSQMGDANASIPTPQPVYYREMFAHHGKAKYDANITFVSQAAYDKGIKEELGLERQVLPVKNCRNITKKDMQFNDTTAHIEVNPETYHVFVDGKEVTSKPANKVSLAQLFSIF
row,Compound,IC50
1,"NP(N)(=O)NC(=O)C=Cc1ccccc1[N+](=O)[O-] [compound 33, N-(Diaminophosphinyl)-2-nitrocinnamamide]",8.3 nM
2,"NP(N)(=O)NC(=O)c1csc([N+](=O)[O-])c1 [Example 21, N-(Diaminophosphinyl)-5-nitro-3-thiophenecarboxamide]",4.3 nM
3,"Cc1oc(Cl)cc1C(=O)NP(N)(N)=O [Example 50, N-(Diaminophosphinyl)-5-chloro-2-methyl-3-furancarboxamide]",7.5 nM
4,"NP(N)(=O)NC(=O)Cc1ccsc1 [Example 81, N-(Diaminophosphinyl)-3-thienylacetamide]",7.9 nM
5,"NP(N)(=O)NC(=O)CSc1nc2ccccc2o1 [Example 63, N-(Diaminophosphinyl)-2-benzoxazolylthioacetamide]",5.6 nM
6,"Cc1cc(C)c(C(=O)NP(N)(N)=O)s1 [Example 91, N-(Diaminophosphinyl)-3,5-dimethyl-2-thiophenecarboxamide]",6.3 nM
7,"Cc1cc(C(=O)NP(N)(N)=O)sc1Cl [Example 35, N-(Diaminophosphinyl)-5-chloro-4-methyl-2-thiophenecarboxamide]",11 nM
8,"NP(N)(=O)NC(=O)C=Cc1ccccc1 [Reference Example 4, N-(Diaminophosphinyl)cinnamamide]",10 nM
9,"NP(N)(=O)NC(=O)C=Cc1cccc(F)c1 [compound 35, N-(Diaminophosphinyl)-3-fluorocinnamamide]",17 nM
10,"N#Cc1ccc(CCC(=O)NP(N)(N)=O)cc1 [compound 40, N-(Diaminophosphinyl)-3-(4-cyanophenyl)propionamide]",18 nM
11,"CCc1occc1C(=O)NP(N)(N)=O [Example 51, N-(Diaminophosphinyl)-2-ethyl-3-furancarboxamide]",22 nM
12,"NP(N)(=O)NC(=O)CCc1ccc(Cl)cc1 [compound 39, N-(Diaminophosphinyl)-3-(4-chlorophenyl)propionamide]",5.9 nM
13,"NP(N)(=O)NC(=O)COc1ccc(Cl)cc1 [Example 55, N-(Diaminophosphinyl)-4-chlorophenoxyacetamide]",3 nM
14,"NP(N)(=O)NC(=O)c1ccccc1C(F)(F)F [compound 24, N-(Diaminophosphinyl)-2-trifluoromethylbenzamide]",8 nM
15,"Cc1ccc(C(=O)NP(N)(N)=O)o1 [Example 43, N-(Diaminophosphinyl)-5-methyl-2-furancarboxamide]",6.2 nM
16,"NP(N)(=O)NC(=O)CSc1nc2ccccc2s1 [Example 64, N-(Diaminophosphinyl)-2-benzothiazolylthioacetamide]",2.9 nM
17,"Cc1sc(C(=O)NP(N)(N)=O)cc1Cl [Example 34, N-(Diaminophosphinyl)-4-chloro-5-methyl-2-thiophenecarboxamide]",12 nM
18,"NP(N)(=O)NC(=O)C=Cc1ccc(F)cc1F [compound 34, N-(Diaminophosphinyl)-2,4-difluorocinnamamide]",22 nM
19,"NP(N)(=O)NC(=O)CCc1ccccc1 [Reference Example 37, N-(Diaminophosphinyl)-3-phenylpropionamide]",17 nM

row,Compound,IC50
1,"Cc1cc(C)c(C)c(OCC(=O)NP(N)(N)=O)c1 [Example 56, N-(Diaminophosphinyl)-2,3,5-trimethylphenoxyacetamide]",41 nM
2,"Cc1ccc(C(=O)NP(N)(N)=O)cc1 [Reference Example 15, N-(Diaminophosphinyl)-4-methylbenzamide]",17 nM
3,"NP(N)(=O)NC(=O)c1cccc(F)c1 [Reference Example 8, N-(Diaminophosphinyl)-3-fluorobenzamide]",4.5 nM
4,"NP(N)(=O)NC(=O)C=Cc1nc2ccccc2o1 [Example 69, N-(Diaminophosphinyl)-3-(2-benzoxazolyl)propenamide]",9.7 nM
5,"NP(N)(=O)NC(=O)COc1ccccc1Cl [Example 59, N-(Diaminophosphinyl)-2-chlorophenoxyacetamide]",5.4 nM
6,"NP(N)(=O)NC(=O)c1sccc1Cl [Example 14, N-(Diaminophosphinyl)-3-chloro-2-thiophenecarboxamide]",1.1 nM
7,"Nc1ccccc1CCC(=O)NP(N)(N)=O [compound 43, N-(Diaminophosphinyl)-3-(2-aminophenyl) propionamide]",71 nM
8,"NP(N)(=O)NC(=O)C=Cc1cc(Br)cs1 [Example 77, N-(Diaminophosphinyl)-3-(4-bromo-2-thienyl)propenamide]",8.1 nM
9,"NP(N)(=O)NC(=O)CCc1cccc(F)c1 [compound 42, N-(Diaminophosphinyl)-3-(3-fluorophenyl) propionamide]",22 nM
10,"Cc1cc(C(=O)NP(N)(N)=O)c(Cl)s1 [Example 89, N-(Diaminophosphinyl)-2-chloro-5-methyl-3-thiophenecarboxamide]",2.6 nM
11,"NP(N)(=O)NC(=O)c1cc(Br)cs1 [Example 8, N-(Diaminophosphinyl)-4-bromo-thiophenecarboxamide]",4.3 nM
12,"Cc1c(Cl)sc(Cl)c1C(=O)NP(N)(N)=O [Example 88, N-(Diaminophosphinyl)-2,5-dichloro-4-methyl-3-thiophenecarboxamide]",3.3 nM
13,"CCc1ccsc1C(=O)NP(N)(N)=O [Example 27, N-(Diaminophosphinyl)-3-ethyl-2-thiophenecarboxamide]",4.1 nM
14,"NP(N)(=O)NC(=O)c1cccnc1 [Reference Example 2, N-(Diaminophosphinyl)-3-pyridinecarboxamide]",9.6 nM
15,"NP(N)(=O)NC(=O)c1ccsc1C(F)F [Example 20, N-(Diaminophosphinyl)-2-difluoromethyl-3-thiophenecarboxamide]",2.5 nM
16,"NP(N)(=O)NC(=O)c1ccc(C(F)F)o1 [Example 47, N-(Diaminophosphinyl)-5-difluoromethyl-2-furancarboxamide]",1.9 nM
17,"NP(N)(=O)NC(=O)c1ccc(C(F)(F)F)cc1 [compound 19, N-(Diaminophosphinyl)-4-trifluoromethylbenzamide]",12 nM
18,"Nc1ccc(OCC(=O)NP(N)(N)=O)cc1 [compound 44, N-(Diaminophosphinyl)-4-aminophenoxyacetamide]",11 nM
19,"Cc1c(C(=O)NP(N)(N)=O)csc1Cl [Example 87, N-(Diaminophosphinyl)-5-chloro-4-methyl-3-thiophenecarboxamide]",2.5 nM

row,Compound,IC50
1,"Cc1nc2cc(C(=O)NP(N)(N)=O)ccc2o1 [Example 68, N-(Diaminophosphinyl)-2-methyl-5-benzoxazolecarboxamide]",18 nM
2,"NP(N)(=O)NC(=O)c1sccc1Br [Example 16, N-(Diaminophosphinyl)-3-bromo-2-thiophenecarboxamide]",0.8 nM
3,Cc1cc(C(=O)NP(N)(N)=O)c(C)o1 [Example 49],27 nM
4,"NP(N)(=O)NC(=O)c1ccc([N+](=O)[O-])cc1 [Reference Example 3, N-(Diaminophosphinyl)-4-nitrobenzamide]",6.6 nM
5,"NP(N)(=O)NC(=O)c1ccc(F)cc1F [Reference Example 10, N-(Diaminophosphinyl)-2,4-difluorobenzamide]",7.8 nM
6,"NP(N)(=O)NC(=O)c1ccccc1F [Reference Example 16, N-(Diaminophosphinyl)-2-fluorobenzamide]",2.7 nM
7,"Cc1cc(C(=O)NP(N)(N)=O)sc1Br [Example 29, N-(Diaminophosphinyl)-5-bromo-4-methyl-2-thiophenecarboxamide]",8.1 nM
8,"NP(N)(=O)NC(=O)c1ccc(Cl)cc1 [compound 7, N-(Diaminophosphinyl)-4-chlorobenzamide]",6.9 nM
9,"Cc1onc(-c2ccccc2)c1C(=O)NP(N)(N)=O [Example 73, N-(Diaminophosphinyl)-5-methyl-3-phenyl-4-isoxazolecarboxamide]",55 nM
10,"NP(N)(=O)NC(=O)c1ccsc1Cl [Example 38, N-(Diaminophosphinyl)-2-chloro-3-thiophenecarboxamide]",1.7 nM
11,"NP(N)(=O)NC(=O)CCc1nc2ccccc2o1 [Example 82, N-(Diaminophosphinyl)-3-(2-benzoxazolyl)propionamide]",27 nM
12,"NP(N)(=O)NC(=O)COc1cccc(F)c1 [Example 60, N-(Diaminophosphinyl)-3-fluorophenoxyacetamide]",3.6 nM
13,"Cc1cc(C(=O)NP(N)(N)=O)c(C(F)(F)F)o1 [Example 48, N-(Diaminophosphinyl)-2-trifluoromethyl-5-methyl-3-furancarboxamide]",8.3 nM
14,"NP(N)(=O)NC(=O)C=Cc1ccc(F)cc1 [compound 20, N-(Diaminophosphinyl)-4-fluorocinnamamide]",6.5 nM
15,"NP(N)(=O)NC(=O)c1ccc2ccccc2c1 [compound 28, N-(Diaminophosphinyl)-2-naphthalenecarboxamide]",35 nM
16,"NP(N)(=O)NC(=O)c1ccccc1[N+](=O)[O-] [compound 18, N-(Diaminophosphinyl)-2-nitrobenzamide]",5.1 nM
17,"Cc1csc(C(=O)NP(N)(N)=O)c1Cl [Example 90, N-(Diaminophosphinyl)-3-chloro-4-methyl-2-thiophenecarboxamide]",6.3 nM
18,"NP(N)(=O)NC(=O)c1csc(C(F)F)c1 [Example 31, N-(Diaminophosphinyl)-5-difluoromethyl-3-thiophenecarboxamide]",7.1 nM
19,"Cc1ccc2c(Cl)c(C(=O)NP(N)(N)=O)sc2c1 [Example 71, N-(Diaminophosphinyl)-3-chloro-6-methylbenzothiophenecarboxamide]",1.9 nM

# Same assay, conditions: Bis-Tris pH 6.5, room temperature, 30 min preincubation, 10 min with urea; read-out: IC50, inhibitory effect against Helicobacter pylori-derived urease
row,Compound,IC50
1,"CCOc1ccc2sc(SCC(=O)NP(N)(N)=O)nc2c1 [Example 66, N-(Diaminophosphinyl)-5-ethoxy-2-benzothiazolylthioacetamide]",10 nM
